Reference: ChEMBL document CHEMBL5370659 (J Med Chem, 2023)
Converted amounts (≈) assume the structure as drawn. Blank lines part the entries; values can stand above or below the molecule they belong to.

Experiments:
[1] = target: T1, Tryptophan 5-hydroxylase 1 (Homo sapiens, UniProt P17752); test: Inhibition of recombinant MBP-tagged full length human THP1 using L-Trp as substrate assessed as formation of 5-HTP by measuring fluorescent property
T1 sequence (P17752 whole entry): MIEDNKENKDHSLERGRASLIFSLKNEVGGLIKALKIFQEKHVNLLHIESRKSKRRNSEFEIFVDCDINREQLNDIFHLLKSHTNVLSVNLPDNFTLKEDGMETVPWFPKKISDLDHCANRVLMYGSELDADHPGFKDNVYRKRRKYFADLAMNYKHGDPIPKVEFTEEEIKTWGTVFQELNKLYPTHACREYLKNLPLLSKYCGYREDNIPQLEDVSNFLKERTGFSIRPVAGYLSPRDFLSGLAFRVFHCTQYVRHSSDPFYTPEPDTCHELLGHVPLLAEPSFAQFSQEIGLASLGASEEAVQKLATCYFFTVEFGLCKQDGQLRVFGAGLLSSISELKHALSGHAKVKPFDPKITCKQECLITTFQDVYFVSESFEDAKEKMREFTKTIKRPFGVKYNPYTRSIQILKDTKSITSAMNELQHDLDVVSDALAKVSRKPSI

[2] = target: T2, Tryptophan 5-hydroxylase 2 (Homo sapiens, UniProt Q8IWU9); test: Inhibition of recombinant MBP-tagged full length human THP2 using L-Trp as substrate assessed as formation of 5-HTP by measuring fluorescent property
T2 sequence (Q8IWU9 whole entry): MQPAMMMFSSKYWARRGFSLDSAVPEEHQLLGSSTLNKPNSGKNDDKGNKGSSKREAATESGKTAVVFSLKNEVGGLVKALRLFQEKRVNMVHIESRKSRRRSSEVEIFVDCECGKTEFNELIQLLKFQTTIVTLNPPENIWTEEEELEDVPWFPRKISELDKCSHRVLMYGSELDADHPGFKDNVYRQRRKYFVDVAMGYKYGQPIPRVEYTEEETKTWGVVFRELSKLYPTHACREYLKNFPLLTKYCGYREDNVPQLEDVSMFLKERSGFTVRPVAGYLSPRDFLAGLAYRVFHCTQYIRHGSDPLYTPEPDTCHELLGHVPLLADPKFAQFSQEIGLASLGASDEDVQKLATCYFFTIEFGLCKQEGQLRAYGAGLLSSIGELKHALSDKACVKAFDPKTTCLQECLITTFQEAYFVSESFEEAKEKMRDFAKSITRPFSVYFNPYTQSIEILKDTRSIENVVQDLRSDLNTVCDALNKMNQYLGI

[3] = Metabolic stability in rat hepatocytes assessed as half life; format: ADME, cell-based, Hepatocyte
[4] = Apparent permeability across basal to apical side in human Caco-2 cells at pH 6.5/7.4 measured at 5 uM by LC-MS/MS analysis; format: ADME, cell-based; details: Caco-2, pH 6.5
[5] = Plasma protein binding in rat; format: ADME, cell-free; details: read-out: PPB (converted)
[6] = Metabolic stability in human hepatocytes assessed as half life; format: ADME, cell-based, Hepatocyte
[7] = Metabolic stability in human hepatocytes assessed as intrinsic clearance; format: ADME, cell-based, Hepatocyte; details: read-out: CLH
[8] = Apparent permeability across apical to basal side in human Caco-2 cells at pH 6.5/7.4 measured at 5 uM by LC-MS/MS analysis; format: ADME, cell-based; details: Caco-2, pH 6.5
[9] = Solubility in simulated intestinal fluid by HPLC-UV analysis; format: physicochemical
[10] = Solubility in simulated gastric fluid by HPLC-UV analysis; format: physicochemical
[11] = Aqueous solubility of the compound in pH 7.4 PBS buffer by HPLC-UV analysis; format: physicochemical
[12] = Plasma protein binding in human; format: ADME, cell-free; details: read-out: PPB (converted)
[13] = Metabolic stability in rat hepatocytes assessed as intrinsic clearance; format: ADME, cell-based, Hepatocyte; details: read-out: CLH
[14] = Permeability across apical to basal side in MDCK-MDR1 cells at pH 6.5/7.4 measured at 5 uM by LC-MS/MS analysis; format: ADME, cell-based, Canis lupus familiaris; details: dog, MDCK-MDR1, pH 6.5
[15] = Brain homogenate binding in rat; format: ADME, tissue-based
[16] = Permeability across basal to apical side in MDCK-MDR1 cells at pH 6.5/7.4 measured at 5 uM by LC-MS/MS analysis; format: ADME, cell-based, Canis lupus familiaris; details: dog, MDCK-MDR1, pH 6.5
[17] = Brain homogenate binding in mouse; format: ADME, tissue-based

IC50 [1]: 0.394 µM | IC50 [2]: 0.032 µM
Compound: CCn1c(=O)[nH]c(=O)c2c1nc(Cc1cn3c(n1)CCCC3)n2CC1CCC1

half-life [3]: 8 min | Papp B→A at 5 µM [4]: 599 nm/s | fraction unbound [5]: 0.11 | half-life [6]: 40 min | CLint scaled [7]: 10.4 L/h/kg | Papp A→B at 5 µM [8]: 49 nm/s | solubility [9]: < 10 µM | solubility [10]: < 10 µM | solubility [11]: < 10 µM | fraction unbound [12]: 0.11 | CLint scaled [13]: 51.2 L/h/kg
Compound: CCn1c(=O)[nH]c(=O)c2c1nc(Cc1cn3cc(Cl)sc3n1)n2Cc1ccc(-c2ccn(C)n2)cc1

IC50 [1]: 0.228 µM | IC50 [2]: 0.024 µM
Compound: CCn1c(=O)[nH]c(=O)c2c1nc(Cc1cn3cc(C)sc3n1)n2C(C)C

IC50 [1]: 0.271 µM | IC50 [2]: 0.052 µM
Compound: CCn1c(=O)[nH]c(=O)c2c1nc(Cc1cn3cc(C)sc3n1)n2Cc1ccc(C(F)(F)F)cc1

IC50 [1]: 0.113 µM | IC50 [2]: 0.034 µM
Compound: CCn1c(=O)[nH]c(=O)c2c1nc(Cc1cn3cc(C)sc3n1)n2Cc1cc(C)cc(C)c1

IC50 [1]: 0.243 µM | IC50 [2]: 0.025 µM
Compound: CCn1c(=O)[nH]c(=O)c2c1nc(Cc1cn3c(n1)CCCC3)n2Cc1cccc(C(=O)OC)c1

IC50 [1]: 3.27 µM | IC50 [2]: 0.307 µM
Compound: CCn1c(=O)[nH]c(=O)c2c1nc(Cc1cn3c(n1)CCCC3)n2Cc1cccc(C(=O)O)c1

IC50 [1]: > 10 µM | IC50 [2]: > 10 µM
Compound: CCn1c(=O)[nH]c(=O)c2c1nc(Cc1cn3cc(C)sc3n1)n2CC1CCNCC1

IC50 [1]: 0.38 µM | IC50 [2]: 0.063 µM
Compound: CCn1c(=O)[nH]c(=O)c2c1nc(Cc1cn3c(n1)CCCC3)n2Cc1cccc(C(=O)NC[C@H](NC(=O)OCc2ccccc2)C(=O)OC)c1

IC50 [1]: 0.151 µM | IC50 [2]: 0.051 µM
Compound: CCc1nc(C)ccc1OCC(=O)N1CCc2nc3n(c2C1c1ccc(Cl)cc1F)CCCC3 (racemic)

IC50 [1]: 0.066 µM | IC50 [2]: 0.022 µM
Compound: CCn1c(=O)[nH]c(=O)c2c1nc(Cc1cn3cc(C)sc3n1)n2Cc1cccc(C(=O)OC)c1

IC50 [1]: 1.67 µM | IC50 [2]: 0.176 µM
Compound: CCn1c(=O)[nH]c(=O)c2c1nc(Cc1cn3c(n1)CCCC3)n2Cc1cccc(C(=O)NC[C@H](N)C(=O)O)c1

half-life [3]: > 60 min | Papp B→A at 5 µM [4]: 57 nm/s | fraction unbound [5]: 0.82 | half-life [6]: > 60 min | CLint scaled [7]: < 6.9 L/h/kg | Papp A→B at 5 µM [8]: 93 nm/s | solubility [9]: > 200 µM | solubility [10]: 188 µM (≈ 75.8 µg/mL) | solubility [11]: > 200 µM | fraction unbound [12]: 0.85 | CLint scaled [13]: < 6.9 L/h/kg
Compound: CCn1c(=O)[nH]c(=O)c2c1nc(Cc1cn3c(n1)CCCC3)n2Cc1ccccc1

IC50 [1]: > 10 µM | IC50 [2]: > 10 µM
Compound: CCn1c(=O)[nH]c(=O)c2c1nc(Cc1cn3cc(C)sc3n1)n2CC1CCN(C)CC1

IC50 [1]: 0.084 µM | IC50 [2]: 0.018 µM
Compound: CCn1c(=O)[nH]c(=O)c2c1nc(Cc1cn3cc(C)sc3n1)n2Cc1ccccn1

IC50 [1]: 0.118 µM | half-life [3]: > 145 min | Papp B→A at 5 µM [4]: 290 nm/s | Papp A→B at 5 µM [14]: < 6.4 nm/s | fraction unbound [5]: 0.5 | Activity [15]: < 1% | half-life [6]: > 145 min | CLint scaled [7]: < 0.516 L/h/kg | Papp A→B at 5 µM [8]: 2.6 nm/s | solubility [11]: 200 µM (≈ 84.2 µg/mL) | fraction unbound [12]: 0.38 | Papp B→A at 5 µM [16]: 300 nm/s | IC50 [2]: 0.037 µM | Activity [17]: < 1% | CLint scaled [13]: < 1.02 L/h/kg
Compound: CCn1c(=O)[nH]c(=O)c2c1nc(Cc1cn3cc(Cl)sc3n1)n2CC1COC1

IC50 [1]: 0.196 µM | IC50 [2]: 0.024 µM
Compound: CCn1c(=O)[nH]c(=O)c2c1nc(Cc1cn3cc(C)sc3n1)n2Cc1cccc(C)n1

IC50 [1]: 0.157 µM | IC50 [2]: 0.041 µM
Compound: CCn1c(=O)[nH]c(=O)c2c1nc(Cc1cn3cc(C)sc3n1)n2Cc1cccc(C(F)(F)F)c1
